Structures are written as SMILES. Entries after “also recorded” stand apart in the source; their conditions may differ. Like-named read-outs stand apart in the source and are kept apart here.

Data set [1] deals with T1, SARS 3CL proteinase (Severe acute respiratory syndrome coronavirus, UniProt P0C6X7). Briefly: biochemical. Also on record: species or system SARS-CoV.
In data set [2] the target is HCV 3CL proteinase (Human coronavirus 229E, UniProt P0C6X1). As to the kind of experiment: biochemical. The format is binding, common cold virus (HCoV-229E antigenic type).
The target of data set [3] is T1, SARS 3CL proteinase. Briefly: biochemical. It counts as binding, SARS-CoV.

HCV 3CL proteinase, sequence (P0C6X1 2966-3267 limits assumed): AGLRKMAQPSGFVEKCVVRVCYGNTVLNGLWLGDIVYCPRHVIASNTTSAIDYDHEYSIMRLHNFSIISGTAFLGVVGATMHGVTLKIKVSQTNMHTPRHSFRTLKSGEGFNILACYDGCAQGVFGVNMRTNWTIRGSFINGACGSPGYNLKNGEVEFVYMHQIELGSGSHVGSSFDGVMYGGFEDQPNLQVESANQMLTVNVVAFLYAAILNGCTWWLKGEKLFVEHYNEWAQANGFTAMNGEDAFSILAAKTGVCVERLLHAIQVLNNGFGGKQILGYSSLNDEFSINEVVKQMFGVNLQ

As usually defined, the IC50 is the midpoint of a concentration-inhibition curve. A higher IC50 goes with weaker potency in that assay. One may read the Kd as a measure of binding affinity in units of concentration. In general, melting point refers to the temperature of the solid-liquid transition. In the case of `O=c1c(OC2CCCCC2)c(-c2ccc(O)c(O)c2)oc2cc(O)ccc12` [IB-1, 3-O-cyclohexyl-3′,4′,7-trihydroxy-flavonol], the melting point lay in the range of 98 to 100 °C. This compound showed an IC50 in data set [1] of 33.1 µM. In data set [2], binding was put at a Kd of 3.52 µM and the “affinity with HCV 3CL proteinases (in words)” value is “high affinity”. For the same compound, in data set [3], the affinity, expressed as Kd, was 33.7 µM and the “coupling/affinity with SARS 3CL (in words)” value (“coupling/affinity” below) was “couple strongly”.

On to `O=c1c(OCC2COc3ccccc3O2)c(-c2cc(O)cc(O)c2)oc2cc(O)ccc12` (stereo not drawn) [IB-4, 3-(2,3-dihydro-benzo[1,4]dioxan-2-yl-methoxy)-3′,5′,7-trihydroxy-flavonol], for which the “affinity with HCV 3CL proteinases (in words)” value in data set [2] is “high affinity”. The Kd came out at 2.6 µM in data set [2] (read-out: KD HCV 3CL) and 16.8 µM in data set [3] (read-out: KD SARS 3CL). In addition, the “coupling/affinity” value in data set [3] is given as “couple strongly”.

`O=c1c(O[C@@H]2OC[C@@H](O)[C@@H](O)[C@@H]2O)c(-c2ccc(O)c(O)c2)oc2cc(O)cc(O)c12` [IA-3, Quercetin-3-O-β-D-arabinopyranoside] had an IC50 in data set [1] of 31.6 µM. For the same compound, in data set [2], the Kd came to 3.76 µM and the “affinity with HCV 3CL proteinases (in words)” value was “high affinity”. Moreover, in data set [3], binding was put at a Kd of 13.2 µM and the “coupling/affinity” value was “couple strongly”.

As for `O=c1c(O[C@@H]2O[C@H](CO)[C@@H](O)[C@H](O)[C@H]2O)c(-c2ccc(O)c(O)c2)oc2cc(O)cc(O)c12` [IA-1, Quercetin-3-O-β-D-glucopyranoside], in data set [2], binding was characterised by a dissociation constant (Kd) of 28.8 µM and the “affinity with HCV 3CL proteinases (in words)” value is “weaker affinity”.

As for `O=c1c(OC2CCCCCC2)c(-c2ccc(O)c(O)c2)oc2cc(O)ccc12` [IB-3, 3-O-cycloheptyl-3′,4′,7-trihydroxy-flavonol], the melting point fell in the range of 68 to 71 °C. In data set [2], the affinity, expressed as Kd, was 1.51 µM and the “affinity with HCV 3CL proteinases (in words)” value is recorded as “high affinity”. In data set [3], the Kd was 33.5 µM and the “coupling/affinity” value is recorded as “couple strongly”.

In data set [1], `C[C@H]1O[C@@H](Oc2c(-c3ccc(O)c(O)c3)oc3cc(O)cc(O)c3c2=O)[C@H](O)[C@@H](O)[C@H]1O` [IA-4, Quercetin-3-O-β-D-fucopyranoside] yielded an IC50 of 24.1 µM. In data set [2], the affinity, expressed as Kd, was 5.75 µM and the “affinity with HCV 3CL proteinases (in words)” value is “high affinity”. Also, in data set [3], the Kd stood at 104 µM and the “coupling/affinity” value is reported as “couple strongly; also recorded: weaker affinity”.
